Patent publication EP3679037B1, “NEW 5-AMINOTETRAZOLE DERIVATIVES WITH ANTIBACTERIAL AND ANTIFUNGAL ACTIVITY” (Warszawski Uniwersytet Medyczny, priority 2017, dated 2019)
≈ marks a conversion by molar mass, not a printed value. Like-named read-outs stand apart in the source and are kept apart here.

Legend:
[1] = system: non-cancerous, immortalized human keratinocyte (HaCaT) cell line; assay: Cytotoxicity (inhibition of cell proliferation), HaCaT cell line; format: cell-based
Method: (§1) The obtained compounds were tested for potential cytotoxicity. They are not cytotoxic to the non-cancerous, immortalized human keratinocyte (HaCaT) cell line and the lung cancer cell line (A549).

[2] = system: lung cancer cell line (A549); assay: Cytotoxicity (inhibition of cell proliferation), A549 cell line; format: cell-based; conditions: Homo sapiens
Method: as §1

S. aureus DNA Gyrase = S. aureus DNA Gyrase (Staphylococcus aureus, UniProt P0A0K8+P20831); assay: Inhibition of bacterial DNA gyrase; format: biochemical; conditions: dose of inhibitor suppressing 50% activity
Source text: (§2) The mechanism of action was verified for the obtained compounds by inhibiting bacterial topoisomerases (Topoisomerase IV and Gyrase).

[3] = biological target: S. aureus Topoisomerase IV (Staphylococcus aureus, UniProt P0C1S7+P0C1U9); assay: Inhibition of bacterial topoisomerase IV; format: biochemical; conditions: dose of inhibitor suppressing 50% activity
Source text: as §2

[4] = concentration at which cell proliferation is inhibited by 50% in relation to the control, read-out: IC50

S. aureus DNA Gyrase, sequence (P20831 whole entry): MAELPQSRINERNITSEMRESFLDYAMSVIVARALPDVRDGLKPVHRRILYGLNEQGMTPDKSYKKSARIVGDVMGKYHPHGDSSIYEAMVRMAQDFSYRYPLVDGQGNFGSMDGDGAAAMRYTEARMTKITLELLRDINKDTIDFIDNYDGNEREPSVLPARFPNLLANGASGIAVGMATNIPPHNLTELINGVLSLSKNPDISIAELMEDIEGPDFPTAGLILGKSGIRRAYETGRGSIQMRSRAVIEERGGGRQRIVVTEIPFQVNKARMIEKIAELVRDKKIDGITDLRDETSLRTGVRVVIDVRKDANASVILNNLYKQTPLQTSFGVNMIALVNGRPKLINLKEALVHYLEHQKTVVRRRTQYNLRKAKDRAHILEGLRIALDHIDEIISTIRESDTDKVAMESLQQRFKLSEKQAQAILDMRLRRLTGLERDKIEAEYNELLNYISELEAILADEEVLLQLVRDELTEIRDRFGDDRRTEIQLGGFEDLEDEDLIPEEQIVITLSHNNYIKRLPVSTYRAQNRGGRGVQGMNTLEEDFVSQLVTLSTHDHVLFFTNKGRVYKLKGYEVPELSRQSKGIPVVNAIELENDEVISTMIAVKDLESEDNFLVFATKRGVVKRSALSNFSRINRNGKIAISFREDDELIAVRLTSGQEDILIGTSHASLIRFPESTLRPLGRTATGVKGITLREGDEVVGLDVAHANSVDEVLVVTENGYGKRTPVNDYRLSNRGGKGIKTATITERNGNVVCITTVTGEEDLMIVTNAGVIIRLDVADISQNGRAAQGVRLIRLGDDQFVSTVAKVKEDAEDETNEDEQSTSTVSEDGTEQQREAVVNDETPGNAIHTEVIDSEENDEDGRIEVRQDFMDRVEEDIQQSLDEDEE
S. aureus DNA Gyrase, sequence (P0A0K8 whole entry): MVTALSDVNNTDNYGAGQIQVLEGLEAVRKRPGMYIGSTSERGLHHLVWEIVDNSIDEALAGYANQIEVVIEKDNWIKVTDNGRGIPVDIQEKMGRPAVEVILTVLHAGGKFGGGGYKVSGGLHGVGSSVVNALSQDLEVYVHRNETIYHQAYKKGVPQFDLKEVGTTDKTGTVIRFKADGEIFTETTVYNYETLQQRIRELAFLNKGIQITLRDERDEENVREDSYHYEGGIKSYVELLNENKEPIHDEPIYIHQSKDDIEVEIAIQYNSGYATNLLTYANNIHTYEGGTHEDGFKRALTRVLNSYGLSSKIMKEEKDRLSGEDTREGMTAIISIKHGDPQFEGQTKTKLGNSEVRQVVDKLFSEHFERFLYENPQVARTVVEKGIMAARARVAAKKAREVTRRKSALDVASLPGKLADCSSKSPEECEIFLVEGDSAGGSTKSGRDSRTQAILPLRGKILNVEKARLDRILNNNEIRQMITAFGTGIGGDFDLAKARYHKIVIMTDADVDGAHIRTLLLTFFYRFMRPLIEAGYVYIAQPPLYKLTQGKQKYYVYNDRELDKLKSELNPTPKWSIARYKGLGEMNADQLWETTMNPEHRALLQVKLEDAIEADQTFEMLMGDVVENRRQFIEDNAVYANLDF
S. aureus Topoisomerase IV, sequence (P0C1S7 whole entry): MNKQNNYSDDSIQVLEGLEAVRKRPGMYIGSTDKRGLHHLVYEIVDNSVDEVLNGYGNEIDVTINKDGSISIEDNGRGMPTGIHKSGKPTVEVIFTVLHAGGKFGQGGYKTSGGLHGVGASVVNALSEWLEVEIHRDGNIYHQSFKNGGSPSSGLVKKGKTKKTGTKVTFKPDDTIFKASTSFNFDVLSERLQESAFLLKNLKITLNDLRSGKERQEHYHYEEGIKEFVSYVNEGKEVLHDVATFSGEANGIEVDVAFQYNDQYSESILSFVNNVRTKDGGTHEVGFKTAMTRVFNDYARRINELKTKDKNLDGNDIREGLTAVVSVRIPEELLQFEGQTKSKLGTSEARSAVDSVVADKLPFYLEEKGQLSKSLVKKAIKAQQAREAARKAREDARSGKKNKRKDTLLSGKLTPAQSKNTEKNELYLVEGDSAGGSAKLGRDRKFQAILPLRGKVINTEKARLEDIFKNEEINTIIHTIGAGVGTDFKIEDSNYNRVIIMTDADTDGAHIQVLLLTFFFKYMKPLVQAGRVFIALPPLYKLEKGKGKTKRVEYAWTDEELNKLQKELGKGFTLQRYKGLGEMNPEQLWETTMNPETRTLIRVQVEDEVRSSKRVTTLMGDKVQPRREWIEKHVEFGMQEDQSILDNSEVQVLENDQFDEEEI
S. aureus Topoisomerase IV, sequence (P0C1U9 whole entry): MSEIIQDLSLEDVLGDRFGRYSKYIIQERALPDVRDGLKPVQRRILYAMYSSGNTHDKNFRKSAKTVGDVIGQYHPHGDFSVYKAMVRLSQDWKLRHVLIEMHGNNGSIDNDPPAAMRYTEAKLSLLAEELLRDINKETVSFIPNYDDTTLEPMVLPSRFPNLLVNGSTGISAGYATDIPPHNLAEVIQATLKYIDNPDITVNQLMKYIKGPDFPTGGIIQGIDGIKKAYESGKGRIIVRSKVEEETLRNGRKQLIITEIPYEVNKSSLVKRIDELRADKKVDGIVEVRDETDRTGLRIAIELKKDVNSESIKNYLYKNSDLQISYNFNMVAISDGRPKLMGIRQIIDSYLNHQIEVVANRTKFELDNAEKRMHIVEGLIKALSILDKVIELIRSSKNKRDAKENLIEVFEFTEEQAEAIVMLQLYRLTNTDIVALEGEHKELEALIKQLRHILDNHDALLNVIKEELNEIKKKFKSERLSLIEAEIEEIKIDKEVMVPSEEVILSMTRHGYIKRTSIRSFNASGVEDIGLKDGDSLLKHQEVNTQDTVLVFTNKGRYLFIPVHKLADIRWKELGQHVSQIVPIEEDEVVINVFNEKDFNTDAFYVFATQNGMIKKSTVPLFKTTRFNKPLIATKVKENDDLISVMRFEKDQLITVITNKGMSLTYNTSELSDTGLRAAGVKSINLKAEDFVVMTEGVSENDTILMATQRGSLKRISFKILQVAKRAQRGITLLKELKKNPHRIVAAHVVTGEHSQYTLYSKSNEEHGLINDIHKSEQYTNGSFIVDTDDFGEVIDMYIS

With `Fc1ccc(-n2nnnc2Nc2nccs2)cc1Cl` [Compound 2, N-(1-(3-chloro-4-fluorophenyl)-1H-tetrazol-5-yl)thiazol-2-amine] the IC50 [1, 4] was 60 µM and the IC50 [2, 4] was 60 µM.
With `FC(F)(F)c1ccc(-n2nnnc2Nc2nccs2)cc1` [Compound 3, N-(1-(4-(trifluoromethyl)phenyl)-1H-tetrazol-5-yl)thiazole-2-amine] the IC50 [1, 4] was 80 µM and the IC50 [2, 4] was 76 µM.
With `Brc1ccc(-n2nnnc2Nn2cnnc2)cc1` [Compound 5, 1-(4-bromophenyl)-N-(4H-1,2.4-triazol-4-yl)-1H-tetrazole-5-amine] the IC50 [1] was 65 µM and the IC50 [2] was 62 µM.
`Fc1ccc(-n2nnnc2Nn2cnnc2)cc1Cl` [Compound 8, 1-(3-chloro-4-fluorophenyl)-N-(4H-1,2.4-triazol-4-yl)-1H-tetrazole-5-amine] showed an IC50 [1] of 62 µM and an IC50 [2] of 60 µM.
For `Fc1ccc(-n2nnnc2Nn2cnnc2)cc1` [Compound 9, 1-(4-fluorophenyl)-N-(4H-1,2.4-triazol-4-yl)-1H-tetrazole-5-amine], the IC50 [1] was 84 µM and the IC50 [2] was 80 µM.
`Cc1ccc(-n2nnnc2NCc2ccco2)cc1Cl` [Compound 10, 1-(3-chloro-4-methylphenyl)-N-(furan-2-ylmethyl)-1H-tetrazole-5-amine] was tested, and the IC50 [1, 4] was 80 µM, the IC50 [2, 4] was 78 µM and the “IC50 S. aureus DNA Gyrase” value (S. aureus DNA Gyrase) was 22.8 ± 0.4 µg/mL (≈ 78.7 µM). For the same molecule, the IC50 [3] was 41.1 µM.
For `Clc1ccc(-n2nnnc2NCc2ccco2)cc1Cl` [Compound 11, 1-(3,4-dichlorophenyl)-N-(furan-2-ylmethyl)-1H-tetrazole-5-amine], the IC50 [1, 4] was 84 µM, the IC50 [2, 4] was 80 µM and the IC50 (S. aureus DNA Gyrase) was 2.9 µM. The IC50 [3] was 8.38 µM.
